# Data published in patent US11613531B2, “Inhibitors of RHO associated coiled-coil containing protein kinase” (Kadmon Corporation, LLC, priority 2017, dated 2023).
# “And” between values parts separate entries of the source, which are not always exact repeats. Equal values may be shown once. Read-outs that look alike come from different tables or passages of the source.
# Key:
# [1] = target: Recombinant ROCK2 (amino acids 1-552) (Homo sapiens (Human), UniProt O75116); assay: Z′-Lyte kinase assay, ROCK2; assay type: biochemical; details: for inhibition at 1 µM: 1 μM compound, read-out: ROCK2 % inh. @ [conc]
# Method: Determination of Compound's ROCK Inhibitory Activity In Vitro (Z'Lyte Assay).
# Recombinant ROCK1 (amino acids 1-535) and ROCK2 (amino acids 1-552) proteins were purchased from ThermoFisher Scientific. Compound's activities were measured by Z′-lyte kinase kit (ThermoFisher Scientific) and IC50 was calculated
# In vitro activities for the compounds were measured with Z′-lyte kinase kit (ThermoFisher Scientific). The percent inhibition rate was calculated by normalizing the kinase activity value obtained with 1 μM compound treatment against DMSO control value and then applied to the formula, [1-(compound/DMSO)]×100%. IC50s were calculated using the nonlinear regression curve fit function of the GraphPad Prism software with kinase activities data measured with 9 points 2-fold serial dilution of compounds treatment. In cell pMLC IC50s were calculated with data obtained from A7R5 cell experiments. A7R5 cells were treated with 9 points 2-fold serial dilution of compounds and ppMlc (T18/S19) levels were determined to calculate cellular IC50 values of the compounds using the nonlinear regression curve fit function of the GraphPad Prism software. NIH3T3 cells stably expressing ACTA2-promoter-driven-luciferase were applied to measure ROCK compounds functional IC50s in cells. Cells were plated in 96 well plates to confluence and treated with 9 points serial dilution of compounds in combination with TGFβ1 for 24 hr. Luciferase activities were measured and compound's IC50s were calculated using the nonlinear regression curve fit function of the GraphPad Prism software.
# [2] = system: ppMlc (T18/S19) levels in A7R5 cells; assay: A7R5 in-cell ELISA (pMLC); assay type: cell-based, Rat; details: for pMLC % inh A7R5 @ [conc] / inhibition at 10 µM: 10 μM compound; for inhibition at 10 µM / IC50 / inhibition at 1 µM: Rattus norvegicus; for inhibition at 10 µM / inhibition at 1 µM: read-out: pMLC % inh A7R5 @ [conc]; for IC50: ppMlc (T18/S19); for inhibition at 1 µM: 1 μM compound
# Outline: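 Cellular IC50 came from a nonlinear regression fit of ppMlc (T18/S19) signal, read by colorimetric in-cell ELISA on fixed cells. Rat A7R5 aortic smooth muscle cells had been exposed for 90 min to compounds in 9-point 2-fold serial dilution, 24 h after seeding.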
# Sequence of Recombinant ROCK2 (amino acids 1-552) (O75116 1-552): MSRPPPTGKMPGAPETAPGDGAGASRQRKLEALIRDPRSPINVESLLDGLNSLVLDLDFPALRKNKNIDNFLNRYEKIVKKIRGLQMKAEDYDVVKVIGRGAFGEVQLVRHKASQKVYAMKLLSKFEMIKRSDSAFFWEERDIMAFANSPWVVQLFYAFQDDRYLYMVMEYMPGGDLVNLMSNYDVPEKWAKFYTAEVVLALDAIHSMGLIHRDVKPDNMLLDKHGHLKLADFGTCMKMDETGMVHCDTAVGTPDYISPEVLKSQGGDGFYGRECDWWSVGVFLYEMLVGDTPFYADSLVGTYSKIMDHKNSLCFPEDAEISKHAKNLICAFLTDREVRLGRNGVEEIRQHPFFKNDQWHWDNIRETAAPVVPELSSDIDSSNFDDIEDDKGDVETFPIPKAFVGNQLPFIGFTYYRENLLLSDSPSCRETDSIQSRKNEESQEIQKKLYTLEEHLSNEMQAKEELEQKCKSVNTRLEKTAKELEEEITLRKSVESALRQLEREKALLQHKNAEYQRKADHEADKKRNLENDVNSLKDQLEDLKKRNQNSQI
Structure (SMILES),IC50 [1] [nM],inhibition at 1 µM [1] [%],"inhibition at 10 µM ([2]; A7R5, A7R5 cells) [%]",other results
"COc1cccc(C2CCN(c3nccc(Nc4ccc(-c5cn[nH]c5)cc4)n3)C2)c1 (stereo not shown) [Example 269, N-(4-(1H-pyrazol-4-yl)phenyl)-2-(3-(3-methoxyphenyl)pyrrolidin-1-yl)pyrimidin-4-amine]",1650,–,–,pMLC % inh A7R5 @ [conc] ([2]; A7R5 cells): −5.7% and −7.2%
"Cc1cnc(N2CC(C)NC(C)C2)nc1Nc1ccc2[nH]ncc2c1 (stereo not shown) [Example 98, N-(2-(3,5-dimethylpiperazin-1-yl)-5-methylpyrimidin-4-yl)-1H-indazol-5-amine]",–,0,17.4,–
"CC1CCN(c2ncc(Cl)c(Nc3ccc4[nH]ncc4c3)n2)CCN1 (stereo not shown) [Example 191, N-(5-chloro-2-(5-methyl-1,4-diazepan-1-yl)pyrimidin-4-yl)-1H-indazol-5-amine]",–,67,50.6,"IC50 ([2]; A7R5, A7R5 cells): 1850 nM"
"c1cc(Nc2ccc(-c3cn[nH]c3)cc2)nc(N2CCCNCC2)n1 [Example 44, N-(4-(1H-pyrazol-4-yl)phenyl)-2-(1,4-diazepan-1-yl)pyrimidin-4-amine]",220,72.7,–,"inhibition at 1 µM ([2]; A7R5, A7R5 cells): 13.2%"
"CC1CN(c2ncc(Cl)c(Nc3ccc4[nH]ncc4c3)n2)CCN1 (stereo not shown) [Example 180, N-(5-chloro-2-(3-methylpiperazin-1-yl)pyrimidin-4-yl)-1H-indazol-5-amine]",–,73.8,62.6,"IC50 ([2]; A7R5, A7R5 cells): 1460 nM"
"c1cc(Nc2ccc(-c3cncs3)cc2)nc(N2CCNCC2)n1 [Example 353, 2-(piperazin-1-yl)-N-(4-(thiazol-5-yl)phenyl)pyrimidin-4-amine]",> 10000,–,–,pMLC % inh A7R5 @ [conc] ([2]; A7R5 cells): 25.55%
"Cc1cc(Nc2ccc3[nH]ncc3c2)nc(N2CC3CC(C2)N3)n1 [Example 120, N-(2-(3,6-diazabicyclo[3.1.1]heptan-3-yl)-6-methylpyrimidin-4-yl)-1H-indazol-5-amine]",–,93.1,–,"inhibition at 1 µM ([2]; A7R5, A7R5 cells): 23.4%"
"CC1CN(c2ncc(F)c(Nc3ccc4[nH]ncc4c3)n2)CCCN1 (stereo not shown) [Example 151, N-(5-fluoro-2-(3-methyl-1,4-diazepan-1-yl)pyrimidin-4-yl)-1H-indazol-5-amine]",–,87.4,55.1,IC50 ([1]; 9 points 2-fold serial dilution): 80 nM
"Cc1cc(Nc2ccc3[nH]ncc3c2)nc(N2CCNC(C)CC2)n1 (stereo not shown) [Example 116, N-(6-methyl-2-(5-methyl-1,4-diazepan-1-yl)pyrimidin-4-yl)-1H-indazol-5-amine]",–,81.9,51.6,"IC50 ([2]; A7R5, A7R5 cells): 1020 nM"
"Nc1ncc(-c2ccc(Nc3ccnc(N4CCNCC4)n3)cc2)s1 [Example 361, 5-(4-((2-(piperazin-1-yl)pyrimidin-4-yl)amino)phenyl)thiazol-2-amine]",> 10000,–,2.02,–
"CCC1CN(c2nc(C)cc(Nc3ccc4[nH]ncc4c3)n2)CCN1 (stereo not shown) [Example 114, N-(2-(3-ethylpiperazin-1-yl)-6-methylpyrimidin-4-yl)-1H-indazol-5-amine]",–,82,48.7,–
"Cc1cc(Nc2ccc3[nH]ncc3c2)nc(N2CC3CNC3C2)n1 (stereo not shown) [Example 134, N-(2-(3,6-diazabicyclo[3.2.0]heptan-3-yl)-6-methylpyrimidin-4-yl)-1H-indazol-5-amine]",11,–,–,"inhibition at 1 µM ([2]; A7R5, A7R5 cells): 29.9%"
"Nc1ccc(-c2ccc(Nc3ccnc(N4CCNCC4)n3)cc2)cn1 [Example 350, N-(4-(6-aminopyridin-3-yl)phenyl)-2-(piperazin-1-yl)pyrimidin-4-amine]",3700,–,14.8,–
"OC1CC2CCC(C1)N2c1nccc(Nc2ccc(-c3cn[nH]c3)cc2)n1 (stereo not shown) [Example 259, 8-(4-((4-(1H-pyrazol-4-yl)phenyl)amino)pyrimidin-2-yl)-8-azabicyclo[3.2.1]octan-3-ol]",> 10000,–,–,inhibition at 10 µM ([2]; A7R5 cells): 6.48%
"CCC1CN(c2ncc(Cl)c(Nc3ccc4[nH]ncc4c3)n2)CCCN1 (stereo not shown) [Example 186, N-(5-chloro-2-(3-ethyl 4-diazepan-1-yl)pyrimidin-4-yl)-1H-indazol-5-amine]",–,47.8,47.7,–
"Cc1cc(Nc2ccc3[nH]ncc3c2)nc(N2CCNC(C(C)C)CC2)n1 (stereo not shown) [Example 111, N-(2-(5-isopropyl-1,4-diazepan-1-yl)-6-methylpyrimidin-4-yl)-1H-indazol-5-amine]",–,31.8,44,–
